Reference: PMC10249021 (Journal of the American Chemical Society, 2020)

Assay: Thermal stability of oxytocin and analogues at 50 °C by LCMS analysis
Type: physicochemical
Conditions: thermal degradation in water at 50 °C; read-out LCMS analysis

half-life (thermal stability): 93.6 h
SMILES: CC[C@H](C)[C@@H]1NC(=O)[C@H](Cc2ccc(O)cc2)NC(=O)[C@@H](N)CSSC[C@@H](C(=O)N2CCC[C@H]2C(=O)N[C@@H](CC(C)C)C(=O)NCC(N)=O)NC(=O)[C@H](CC(N)=O)NC(=O)[C@H](CCC(N)=O)NC1=O [oxytocin]
